Experiments:
[1] = test system: formalin-induced hind paw licking in CD-1 mice; assay: Animal pain test (formalin assay); format: in vivo; conditions: for % Inhibition of hind paw licking time: vs vehicle
Description: The formalin test is being widely accepted as a valid basic model of persistent clinical pain, and may indicate a compound's efficacy in neuropathic and/or inflammatory pain conditions.
Compound 1 and a comparator (gabapentin 100 mg/kg) were administered to groups of 5 or 10 CD-1 (Crl.) derived male mice weighing 24±2 g. Test substances and vehicle (0.2% HPMC/0.9% NaCl) were each administered by intraperitoneal injection (gabapentin) or oral gavage (compound 1) 15 or 30 minutes before subplantar injection of formalin (0.02 ml, 2% solution). Reduction of the formalin-induced hind paw licking time recorded at 5-minute interval during the following 0- to 35-minute after formalin injection by 50 percent or more (≧50%) indicated significant analgesic activity. Also, statistical analysis was performed by using one-way ANOVA followed by Dunnett's test to compare the test compound-treated and vehicle control groups. Significance is considered at P<0.05 level. Acute toxic symptoms and autonomic effects were observed after the administration of test compounds.

[2] = Pig skin permeation from patch; format: in vitro ADME
Description: The in vitro permeation of compound 1 through pig skin from saturated solution (f1) and from a patch (f2) was investigated.
For this permeation experiments Franz diffusion cells with a diffusion area of 2.54 cm^2 and an acceptor volume of approx. 100 mL were used. For the study pig leg skin with a thickness of 300-500 μm was used. The permeation experiments were performed at a temperature of 32° C. and the acceptor medium (phosphate buffer pH 6.2) was slowly stirred. A patch of 2.54 cm^2 area comprising about 5 wt % of compound 1 in a hydrophobic adhesive layer was fixed on the skin surface. The experiments were performed in triplicate (n=3) over a period of 48 hours. During this time period six samples at different time points (after 2, 4, 6, 8, 24 and 48 hours) were taken. After each individual incubation period the concentration of the test compound in the acceptor medium was analysed by HPLC at 275 nm, 20° C., 2.0 mL/min in acetonitrile/water/TFA.

[3] = target: T1, porcine cortical p5-HT2 serotonin receptor (Sus scrofa, UniProt P50129); assay: Receptor binding assay, [3H]ketanserin competition, porcine cortical membranes
T1 construct: membrane homogenates prepared from porcine striatal or cortical tissue; from tissue; host or cells: porcine cortex

[4] = target: T2, porcine cortical p5-HT1a serotonin receptor (Sus scrofa, UniProt A0A4X1UTF5); assay: Receptor binding assay, [3H]WAY100635 competition, porcine cortical membranes
T2 construct: membrane homogenates prepared from porcine striatal or cortical tissue; from tissue; host or cells: porcine cortex
T2 sequence (A0A4X1UTF5 1-422): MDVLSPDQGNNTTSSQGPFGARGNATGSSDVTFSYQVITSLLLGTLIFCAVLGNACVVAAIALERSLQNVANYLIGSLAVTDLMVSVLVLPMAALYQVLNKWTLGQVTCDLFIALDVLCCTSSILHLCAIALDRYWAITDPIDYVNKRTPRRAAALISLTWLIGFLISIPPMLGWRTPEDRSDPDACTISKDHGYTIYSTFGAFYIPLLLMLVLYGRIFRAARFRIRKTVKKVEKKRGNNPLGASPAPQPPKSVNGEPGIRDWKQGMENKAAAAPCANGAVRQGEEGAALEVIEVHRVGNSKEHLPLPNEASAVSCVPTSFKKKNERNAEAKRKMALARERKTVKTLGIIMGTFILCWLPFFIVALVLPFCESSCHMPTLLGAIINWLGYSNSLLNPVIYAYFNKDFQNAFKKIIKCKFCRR

[5] = target: T3, human dopamine receptor subtype hD4.4 (Homo sapiens, UniProt P21917); assay: Receptor binding assay, [3H]spiperone competition, CHO cell membranes
T3 construct: expressed in transfected cells; host or cells: CHO
T3 sequence (P21917 1-419): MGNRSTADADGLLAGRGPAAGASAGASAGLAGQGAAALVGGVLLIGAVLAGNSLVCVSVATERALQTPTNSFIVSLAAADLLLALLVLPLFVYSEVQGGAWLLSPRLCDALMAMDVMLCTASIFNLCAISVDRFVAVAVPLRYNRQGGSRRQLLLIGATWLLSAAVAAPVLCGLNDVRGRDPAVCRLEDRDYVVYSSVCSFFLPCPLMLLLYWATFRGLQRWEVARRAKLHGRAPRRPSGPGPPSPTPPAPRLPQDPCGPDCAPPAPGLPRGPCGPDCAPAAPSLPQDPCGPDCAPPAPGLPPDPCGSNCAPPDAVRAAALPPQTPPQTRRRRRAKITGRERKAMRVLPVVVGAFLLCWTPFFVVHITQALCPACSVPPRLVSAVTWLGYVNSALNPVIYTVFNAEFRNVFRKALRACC
Description: Receptor binding data were determined when performing competition binding assays with membrane preparations of cloned cells (stably transfected Chinese Hamster Ovary cells (CHO)) expressing the human receptors and the following radioligands: [^3H]spiperone at the human dopamine receptor subtypes hD2long, hD2short, D3, and hD4.4. […].
Selectivity ratios were calculated by division of the Ki values of the various compounds at the respective receptors through the Ki values at the 5HT1a receptor.

[6] = Stability in PBS buffer pH 7.4 and SGF with 0.5% DMSO; format: physicochemical; conditions: 37° C.
Description: 5 μL DMSO stock solution of compound 1 (2 mg/mL) were diluted with […] PBS buffer pH 7.4 and 995 μL Simulated Gastric Fluid (SGF). After dilution the samples were immediately analysed by HPLC. After the initial injection, each sample solution was repeatedly injected over a period of approximately 12 hours.

[7] = 5 mg/kg oral, interval 0-5 minutes
[8] = 5 mg/kg oral, interval 5-10 minutes
[9] = 5 mg/kg oral, interval 10-15 minutes
[10] = 5 mg/kg oral, interval 15-20 minutes
[11] = 5 mg/kg oral, interval 20-25 minutes
[12] = 5 mg/kg oral, interval 25-30 minutes
[13] = 5 mg/kg oral, interval 30-35 minutes
[14] = 10 mg/kg oral, interval 0-5 minutes
[15] = 10 mg/kg oral, interval 5-10 minutes
[16] = 10 mg/kg oral, interval 20-25 minutes
[17] = 10 mg/kg oral, interval 25-30 minutes
[18] = 10 mg/kg oral, interval 30-35 minutes
[19] = means of 2-8 individual experiments each done as triplicate

T1 sequence (P50129 whole entry): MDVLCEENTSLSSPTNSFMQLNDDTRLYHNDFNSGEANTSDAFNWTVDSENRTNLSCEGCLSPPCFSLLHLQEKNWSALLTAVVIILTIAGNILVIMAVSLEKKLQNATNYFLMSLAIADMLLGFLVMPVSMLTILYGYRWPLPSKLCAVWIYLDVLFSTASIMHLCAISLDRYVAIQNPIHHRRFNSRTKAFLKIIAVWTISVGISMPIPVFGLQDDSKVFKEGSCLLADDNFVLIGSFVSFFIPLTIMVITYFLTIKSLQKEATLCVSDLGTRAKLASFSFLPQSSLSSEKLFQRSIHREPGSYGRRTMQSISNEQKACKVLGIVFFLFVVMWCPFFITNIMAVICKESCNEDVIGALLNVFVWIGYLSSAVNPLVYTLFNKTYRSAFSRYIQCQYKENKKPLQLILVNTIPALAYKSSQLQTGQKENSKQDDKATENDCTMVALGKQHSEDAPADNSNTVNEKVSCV

CCCN(CCc1cccs1)C1CCc2cccc(O)c2C1 (stereo not shown) [Compound 1, N-(8-Hydroxytetralin-2-yl)-N-propyl-N-[2-(2-thienyl)ethyl]amine]
analgesic effect ([1]; 1 mg/kg oral administration): no analgesic effect
analgesic effect ([1]; 3 mg/kg oral administration): some effect
Hind Paw Licking Times [1, 7]: 63.4 ± 7.2 s
% Inhibition of hind paw licking time [1, 7]: (18%)
Hind Paw Licking Times [1, 8]: 10.2 ± 3.9 s
% Inhibition of hind paw licking time [1, 8]: (0%)
Hind Paw Licking Times [1, 9]: 25.1 ± 11.6 s
% Inhibition of hind paw licking time [1, 9]: (54%)
Hind Paw Licking Times [1, 10]: 56.7 ± 18 s
% Inhibition of hind paw licking time [1, 10]: (44%)
Hind Paw Licking Times [1, 11]: 54.7 ± 9.4 s
% Inhibition of hind paw licking time [1, 11]: (12%)
Hind Paw Licking Times [1, 12]: 54.7 ± 15.1 s
% Inhibition of hind paw licking time [1, 12]: (0%)
Hind Paw Licking Times [1, 13]: 24.7 ± 9.8 s
% Inhibition of hind paw licking time [1, 13]: (0%)
analgesic effect ([1]; 10 mg/kg oral administration, 10-20 minutes period): significant analgesic effect
Hind Paw Licking Times [1, 14]: 64.3 ± 7.3 s
% Inhibition of hind paw licking time [1, 14]: (16%)
Hind Paw Licking Times [1, 15]: 0 ± 0 s
% Inhibition of hind paw licking time [1, 15]: (100%)
% Inhibition of hind paw licking time ([1]; 10 mg/kg oral, interval 10-15 minutes): (96%)
% Inhibition of hind paw licking time ([1]; 10 mg/kg oral, interval 15-20 minutes): (69%)
Hind Paw Licking Times [1, 16]: 37.5 ± 13.6 s
% Inhibition of hind paw licking time [1, 16]: (40%)
Hind Paw Licking Times [1, 17]: 29.9 ± 12.7 s
% Inhibition of hind paw licking time [1, 17]: (0%)
Hind Paw Licking Times [1, 18]: 12.8 ± 8.8 s
% Inhibition of hind paw licking time [1, 18]: (10%)
activity in an oral animal model of pain ([1]; oral): active
penetration of skin in an in vitro skin model of transdermal penetration ([2]; in words): able to penetrate skin
average flux rate from patch ([2]; patch 2.54 cm^2, about 5 wt % compound 1 in hydrophobic adhesive layer, pig leg skin, 32° C., 48 hours): 4.0 μg/cm^2/h
Measured Flux Rate (patch) ([2]; patch, pig skin): 4.01 μg μg per cm^2/h
Extrapolated daily flux rate ([2]; per 30 cm^2 patch/24 hrs): 2.88 mg
Ki [3, 19]: 3600 nM
selectivity ratio p5-HT2 ([3]; vs p5-HT1a): 4 900
melting point: 99 °C
Ki [4, 19]: 0.73 nM
selectivity ratio p5-HT1a ([4]; reference receptor of the ratio (=1)): 1
Ki [5, 19]: 190 nM
selectivity ratio hD4.4 ([5]; vs p5-HT1a): 260
degradation (stability) ([6]; PBS buffer pH 7.4, 12 hours): No degradation
degradation (stability) ([6]; simulated gastric fluid (pH 1-2), 12 hours): No degradation

Source: patent US8586603B2, “Aminotetraline derivatives” (priority 2009, dated 2013)
